Data reported in patent US20210045385A1, “PYRIDAZINONE-SUBSTITUTED KETOXIMES AS HERBICIDES” (FMC Corporation, priority 2018, published 2021).

How the values were obtained:
Type in all cases: in vivo
[1] = system: Italian ryegrass (Lolium mutiflorum); assay: Test C preemergence, visual plant response rating; details: Test C, 0 is no effect, 100 is complete control
Outline: (§1)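 Seeds sown in a loam–sand blend got a directed preemergence soil spray; postemergence plants (2–10 cm, one- to two-leaf stage) were sprayed with compound in a non-phytotoxic solvent plus surfactant. Injury was scored visually against untreated controls after about 10 d in a greenhouse on a 0–100 scale (100 = complete control).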

[2] = system: pigweed (Amaranthus retroflexus); assay: Test C preemergence, visual plant response rating; details: Test C, 0 is no effect, 100 is complete control
Outline: as §1

[3] = system: barnyardgrass (Echinochloa crus-galli); assay: Test C preemergence, visual plant response rating; details: Test C, 0 is no effect, 100 is complete control
Outline: as §1

kochia (Bassia scoparia) [4] = assay: Test C preemergence, visual plant response rating; details: Test C, 0 is no effect, 100 is complete control
Outline: as §1

[5] = system: foxtail, giant (giant foxtail, Setaria faberi); assay: Test C preemergence, visual plant response rating; details: Test C, 0 is no effect, 100 is complete control
Outline: as §1

[6] = system: ragweed (common ragweed, Ambrosia artemisiifolia); assay: Test C preemergence, visual plant response rating; details: Test C, 0 is no effect, 100 is complete control
Outline: as §1

[7] = system: duck salad (Heteranthera limosa); assay: Test D flooded paddy test, visual plant response rating; details: 250 g ai/ha, scale 0 to 100 (0 no effect, 100 complete control), 13 to 15 d
Outline: (§2)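 Plants grown to the 2-leaf stage; pots flooded to 3 cm above soil and compound applied directly into paddy water, depth held throughout. Kept in greenhouse 13 to 15 d, then rated visually against untreated controls on a 0–100 scale (0 no effect, 100 complete control).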

rice (Oryza sativa) = assay: as above; details: 250 g ai/ha, scale 0 to 100 (0 no effect, 100 complete control), 13 to 15 d
Outline: as §2

[8] = system: sedge umbrella (small-flower umbrella sedge, Cyperus difformis); assay: as above; details: 250 g ai/ha, scale 0 to 100 (0 no effect, 100 complete control), 13 to 15 d
Outline: as §2

[9] = system: barnyardgrass (Echinochloa crus-galli); assay: as above; details: 250 g ai/ha, scale 0 to 100 (0 no effect, 100 complete control), 13 to 15 d
Outline: as §2

[10] = system: blackgrass (Alopecurus myosuroides); assay: Test C postemergence, visual plant response rating
Outline: as §1

[11] = system: galium (catchweed bedstraw, Galium aparine); assay: Test C postemergence, visual plant response rating
Outline: as §1

[12] = system: Italian ryegrass (Lolium mutiflorum); assay: Test C postemergence, visual plant response rating
Outline: as §1

[13] = system: pigweed (Amaranthus retroflexus); assay: Test C postemergence, visual plant response rating
Outline: as §1

corn (Zea mays) = assay: Test C postemergence, visual plant response rating
Outline: as §1

[14] = system: wheat (Triticum aestivum); assay: Test C postemergence, visual plant response rating
Outline: as §1

[15] = system: barnyardgrass (Echinochloa crus-galli); assay: Test C postemergence, visual plant response rating
Outline: as §1

kochia (Bassia scoparia) [16] = assay: Test C postemergence, visual plant response rating
Outline: as §1

[17] = system: foxtail, giant (giant foxtail, Setaria faberi); assay: Test C postemergence, visual plant response rating
Outline: as §1

[18] = system: ragweed (common ragweed, Ambrosia artemisiifolia); assay: Test C postemergence, visual plant response rating
Outline: as §1

[19] = Test C, postemergence, 125 g ai/ha

Row | SMILES | Ryegrass, Italian plant response rating (0 to 100 scale) ([1]; 31 g ai/ha) | Ryegrass, Italian plant response rating (0 to 100 scale) ([1]; 125 g ai/ha) | Pigweed plant response rating (0 to 100 scale) ([2]; 31 g ai/ha) | Pigweed plant response rating (0 to 100 scale) ([2]; 125 g ai/ha) | Barnyardgrass plant response rating (0 to 100 scale) ([3]; 31 g ai/ha) | Barnyardgrass plant response rating (0 to 100 scale) ([3]; 125 g ai/ha) | Kochia plant response rating (0 to 100 scale) (kochia (Bassia scoparia) [4]; 31 g ai/ha) | Kochia plant response rating (0 to 100 scale) (kochia (Bassia scoparia) [4]; 125 g ai/ha) | Foxtail, Giant plant response rating (0 to 100 scale) ([5]; 31 g ai/ha) | Foxtail, Giant plant response rating (0 to 100 scale) ([5]; 125 g ai/ha) | Ragweed plant response rating (0 to 100 scale) ([6]; 31 g ai/ha) | Ragweed plant response rating (0 to 100 scale) ([6]; 125 g ai/ha) | Plant response rating, Ducksalad (Flood) [7] | Plant response rating, Rice (Flood) (rice (Oryza sativa)) | Plant response rating, Sedge, Umbrella (Flood) [8] | Plant response rating, Barnyardgrass (Flood) [9] | Blackgrass plant response rating (0 to 100 scale) ([10]; Postemergence, 31 g ai/ha) | Blackgrass plant response rating (0 to 100 scale) [10, 19] | Galium plant response rating (0 to 100 scale) ([11]; Postemergence, 31 g ai/ha) | Galium plant response rating (0 to 100 scale) [11, 19] | other results
1 | CO/N=C(\c1cccc(/C=C/Cl)c1)c1c(O)c(C)nn(C)c1=O [Compound 286] | 0 | 10 | 0 | 10 | 60 | 90 | 0 | 0 | 0 | 50 | 0 | 20 | 0 | 0 | 0 | 0 | 20 | 0 | 50 | 60 | Ryegrass, Italian plant response rating (0 to 100 scale) ([12]; Postemergence, 31 g ai/ha): 0; Ryegrass, Italian plant response rating (0 to 100 scale) [12, 19]: 0; Pigweed plant response rating (0 to 100 scale) ([13]; Postemergence, 31 g ai/ha): 20; Pigweed plant response rating (0 to 100 scale) [13, 19]: 50; Corn plant response rating (0 to 100 scale) (corn (Zea mays); Postemergence, 31 g ai/ha): 0; Corn plant response rating (0 to 100 scale) (corn (Zea mays); [19]): 0; Wheat plant response rating (0 to 100 scale) ([14]; Postemergence, 31 g ai/ha): 30; Wheat plant response rating (0 to 100 scale) [14, 19]: 30; Barnyardgrass plant response rating (0 to 100 scale) ([15]; Postemergence, 31 g ai/ha): 0; Barnyardgrass plant response rating (0 to 100 scale) [15, 19]: 30; Kochia plant response rating (0 to 100 scale) (kochia (Bassia scoparia) [16]; Postemergence, 31 g ai/ha): 10; Kochia plant response rating (0 to 100 scale) (kochia (Bassia scoparia) [16]; [19]): 30; Foxtail, Giant plant response rating (0 to 100 scale) ([17]; Postemergence, 31 g ai/ha): 0; Foxtail, Giant plant response rating (0 to 100 scale) [17, 19]: 20; Ragweed plant response rating (0 to 100 scale) ([18]; Postemergence, 31 g ai/ha): 30; Ragweed plant response rating (0 to 100 scale) [18, 19]: 50
2 | C#CCO/N=C(\c1cccc(/C=C/Cl)c1)c1c(O)c(C)nn(C)c1=O [Compound 254] | 20 | 60 | 0 | 10 | 0 | 0 | 0 | 0 | 0 | 40 | 40 | 90 | 0 | 0 | 0 | 0 | 10 | 70 | 0 | 40 | Ryegrass, Italian plant response rating (0 to 100 scale) ([12]; Postemergence, 31 g ai/ha): 20; Ryegrass, Italian plant response rating (0 to 100 scale) [12, 19]: 70; Pigweed plant response rating (0 to 100 scale) ([13]; Postemergence, 31 g ai/ha): 20; Pigweed plant response rating (0 to 100 scale) [13, 19]: 70; Corn plant response rating (0 to 100 scale) (corn (Zea mays); Postemergence, 31 g ai/ha): 0; Corn plant response rating (0 to 100 scale) (corn (Zea mays); [19]): 10; Wheat plant response rating (0 to 100 scale) ([14]; Postemergence, 31 g ai/ha): 30; Wheat plant response rating (0 to 100 scale) [14, 19]: 60; Barnyardgrass plant response rating (0 to 100 scale) ([15]; Postemergence, 31 g ai/ha): 30; Barnyardgrass plant response rating (0 to 100 scale) [15, 19]: 50; Kochia plant response rating (0 to 100 scale) (kochia (Bassia scoparia) [16]; Postemergence, 31 g ai/ha): 50; Kochia plant response rating (0 to 100 scale) (kochia (Bassia scoparia) [16]; [19]): 70; Foxtail, Giant plant response rating (0 to 100 scale) ([17]; Postemergence, 31 g ai/ha): 20; Foxtail, Giant plant response rating (0 to 100 scale) [17, 19]: 60; Ragweed plant response rating (0 to 100 scale) ([18]; Postemergence, 31 g ai/ha): 30; Ragweed plant response rating (0 to 100 scale) [18, 19]: 50
3 | CON=C(c1cc(Cl)cc(Cl)c1Cl)c1c(O)c(C)nn(C)c1=O [Compound 214] | 90 | 100 | 80 | 100 | 70 | 90 | 20 | 70 | 80 | 100 | 20 | 100 | 70 | 45 | 70 | 70 | 30 | 80 | 90 | 90 | Ryegrass, Italian plant response rating (0 to 100 scale) ([12]; Postemergence, 31 g ai/ha): 80; Ryegrass, Italian plant response rating (0 to 100 scale) [12, 19]: 100; Pigweed plant response rating (0 to 100 scale) ([13]; Postemergence, 31 g ai/ha): 80; Pigweed plant response rating (0 to 100 scale) [13, 19]: 90; Corn plant response rating (0 to 100 scale) (corn (Zea mays); Postemergence, 31 g ai/ha): 30; Corn plant response rating (0 to 100 scale) (corn (Zea mays); [19]): 40; Wheat plant response rating (0 to 100 scale) ([14]; Postemergence, 31 g ai/ha): 40; Wheat plant response rating (0 to 100 scale) [14, 19]: 70; Barnyardgrass plant response rating (0 to 100 scale) ([15]; Postemergence, 31 g ai/ha): 70; Barnyardgrass plant response rating (0 to 100 scale) [15, 19]: 80; Kochia plant response rating (0 to 100 scale) (kochia (Bassia scoparia) [16]; Postemergence, 31 g ai/ha): 70; Kochia plant response rating (0 to 100 scale) (kochia (Bassia scoparia) [16]; [19]): 80; Foxtail, Giant plant response rating (0 to 100 scale) ([17]; Postemergence, 31 g ai/ha): 80; Foxtail, Giant plant response rating (0 to 100 scale) [17, 19]: 80; Ragweed plant response rating (0 to 100 scale) ([18]; Postemergence, 31 g ai/ha): 80; Ragweed plant response rating (0 to 100 scale) [18, 19]: 90
4 | CON=C(c1cc(Cl)cc(Cl)c1F)c1c(O)c(C)nn(C)c1=O [Compound 299] | 100 | 100 | 100 | 100 | 90 | 100 | 90 | 100 | 100 | 100 | 90 | 100 | 80 | 45 | 90 | 85 | 80 | 80 | 100 | 100 | Ryegrass, Italian plant response rating (0 to 100 scale) ([12]; Postemergence, 31 g ai/ha): 100; Ryegrass, Italian plant response rating (0 to 100 scale) [12, 19]: 100; Pigweed plant response rating (0 to 100 scale) ([13]; Postemergence, 31 g ai/ha): 90; Pigweed plant response rating (0 to 100 scale) [13, 19]: 100; Corn plant response rating (0 to 100 scale) (corn (Zea mays); Postemergence, 31 g ai/ha): 10; Corn plant response rating (0 to 100 scale) (corn (Zea mays); [19]): 30; Wheat plant response rating (0 to 100 scale) ([14]; Postemergence, 31 g ai/ha): 30; Wheat plant response rating (0 to 100 scale) [14, 19]: 70; Barnyardgrass plant response rating (0 to 100 scale) ([15]; Postemergence, 31 g ai/ha): 70; Barnyardgrass plant response rating (0 to 100 scale) [15, 19]: 90; Kochia plant response rating (0 to 100 scale) (kochia (Bassia scoparia) [16]; Postemergence, 31 g ai/ha): 100; Kochia plant response rating (0 to 100 scale) (kochia (Bassia scoparia) [16]; [19]): 100; Foxtail, Giant plant response rating (0 to 100 scale) ([17]; Postemergence, 31 g ai/ha): 90; Foxtail, Giant plant response rating (0 to 100 scale) [17, 19]: 100; Ragweed plant response rating (0 to 100 scale) ([18]; Postemergence, 31 g ai/ha): 100; Ragweed plant response rating (0 to 100 scale) [18, 19]: 100
